Measurements from patent US5663148A, “Anaphylatoxin receptor ligands containing lipophilic residues” (Abbott Laboratories, priority 1994, dated 1997).

Biological target: T1, C5a receptor (Homo sapiens, UniProt P21730)
T1 construct: from tissue; host or cells: polymorphonuclear leukocyte (PMNL) membrane fragments
T1 sequence (P21730 1-350): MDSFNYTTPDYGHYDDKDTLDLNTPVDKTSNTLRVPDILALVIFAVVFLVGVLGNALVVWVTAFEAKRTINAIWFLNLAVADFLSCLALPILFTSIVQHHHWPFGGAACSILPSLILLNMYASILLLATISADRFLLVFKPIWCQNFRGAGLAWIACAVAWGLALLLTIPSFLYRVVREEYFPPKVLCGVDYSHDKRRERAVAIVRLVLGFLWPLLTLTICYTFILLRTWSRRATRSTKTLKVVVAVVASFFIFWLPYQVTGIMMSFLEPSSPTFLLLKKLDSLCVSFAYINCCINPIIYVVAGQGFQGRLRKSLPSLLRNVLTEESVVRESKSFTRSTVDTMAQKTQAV
Test: Anaphylatoxin (C5a) receptor binding Ki determination, 125I-C5a on PMNL membrane fragments
Details: read-out: Ki (In vitro C5a Receptor Binding Potency)
Experimental: The membrane-bound radiolabeled C5a was separated from the free radiolabeled C5a by filtration, and the recovered gamma radioactivity was measured. […] Free and membrane-bound ligand were separated by filtration.

| SMILES | Ki |
| --- | --- |
| CC(C)C[C@H](NC(=O)[C@@H]1CCCN1C(=O)[C@H](CC1CCCCC1)NC(=O)CCCCCN)C(=O)NC(CCCc1ccccc1)C(=O)N[C@@H](CCCNC(=N)N)C(=O)O (mixture of isomers) [Example 11, N-(6-Aminohexanoyl)-{(2S)-2Amino-3-cyclohexylpropanoyl}-Prolyl-Leucyl-{(R/S)-2-Amino-5-phenylpentanoyl}-Arginyl-OH] | 3.6 µM |
| CC(C)C[C@@H](C(=O)NC(CCCc1ccccc1)C(=O)N[C@@H](CCCNC(=N)N)C(=O)O)N(C)C(=O)CNC(=O)[C@H](CC1CCCCC1)NC(=O)CCCCCCN (mixture of isomers) [Example 27, N-(7-Aminoheptanoyl)-{(2S)-2-Amino-3-cyclohexylpropanoyl}-Glycyl-Leucyl(N-methyl)-{(R/S)-2-Amino-5-phenylpentanoyl}-Arginyl-OH] | 0.45 µM |
| CC(C)C[C@H](NC(=O)CNC(=O)[C@H](CC1CCCCC1)NC(=O)CCCCCCN)C(=O)N(C)C(CCCc1ccccc1)C(=O)N[C@@H](CCCNC(=N)N)C(=O)O (mixture of isomers) [Example 28] | 1.72 µM |
| CC(C)C[C@H](NC(=O)CCCc1c[nH]c2ccccc12)C(=O)NC(CCCc1ccccc1)C(=O)N[C@@H](CCCNC(=N)N)C(=O)O (mixture of isomers) [Example 30, N-(Indole-3-butyryl)-Leucyl-{(R/S)-2-Amino-5-phenylpentanoyl}-Arginyl-OH] | 7.1 µM |
| N=C(N)NCCC[C@H](NC(=O)C(CCCc1ccccc1)NC(=O)[C@@H](Cc1ccccc1)NC(=O)CNC(=O)[C@H](CC1CCCCC1)NC(=O)CCCCCN)C(=O)O (mixture of isomers) [Example 58, N-(6-Aminohexanoyl)-{(2S)-2-Amino-3-cyclohexylpropanoyl}-Glycyl-DPhenylalanyl-{(R/S)-2-Amino-5-phenylpentanoyl}-Arginyl-OH] | 6.5 µM |
| C[C@H](NC(=O)CNC(=O)[C@@H](N)CC1CCCCC1)C(=O)NC(CCCc1ccccc1)C(=O)N[C@@H](CCCNC(=N)N)C(=O)O (mixture of isomers) [Example 59, H-{(2S)-2-Amino-3-cyclohexylpropanoyl}-Glycyl-Alanyl-{(±)-2-Amino-5-phenylpentanoyl}-Arginyl-OH] | 67 µM |
| CC(C)C[C@H](NC(=O)[C@@H](CCCCN)NC(=O)[C@@H](N)CC1CCCCC1)C(=O)NC(CCCc1ccccc1)C(=O)N[C@@H](CCCNC(=N)N)C(=O)O (mixture of isomers) [Example 98, H-{(2S)-2-Amino-3-cyclohexylpropanoyl}-DLysyl-Leucyl-{(R/S)-2-Amino-5-phenylpentanoyl}-Arginyl-OH] | 44.7 µM |
| CC(C)C[C@H](NC(=O)CNC(=O)[C@H](CC1CCCCC1)NC(=O)CN(C)C(=O)CCCN)C(=O)NC(CCCc1ccccc1)C(=O)N[C@@H](CCCNC(=N)N)C(=O)O (mixture of isomers) [Example 113, N-(gamma-Aminobutyryl)-Sarcrosinyl-{(2S)-2-Amino-3-cyclohexyl-propanoyl}-Glycyl-Leucyl-{(R/S)-2-Amino-5-phenylpentanoyl}-Arginyl-OH] | 0.87 µM |
| CC(C)C[C@H](NC(=O)[C@H](C)NC(=O)[C@H](CC1CCCCC1)NC(=O)[C@@H]1CCCN1C(=O)[C@H](C)NC(=O)[C@@H](N)Cc1ccccc1)C(=O)NC(CCCc1ccccc1)C(=O)N[C@@H](CCCNC(=N)N)C(=O)O (mixture of isomers) [Example 143, H-Phenylalanyl-Alanyl-Prolyl-{(2S)-2-Amino-3-cyclohexylpropanoyl}-Alanyl-Leucyl-{(±)-2-Amino-5-phenylpentanoyl}-Arginyl-OH] | 0.054 µM |
| CC(C)C[C@H](NC(=O)CNC(=O)[C@H](CC1CCCCC1)NC(=O)NCc1ccc(CN)cc1)C(=O)NC(CCCc1ccccc1)C(=O)N[C@@H](CCCNC(=N)N)C(=O)O (mixture of isomers) [Example 145, N-[N-(4-Aminomethylbenzyl)aminocarbonyl]-{(2S)-2-Amino-3-cyclohexylpropanoyl}-Glycyl-Leucyl-{(R/S)-2-Amino-5-phenylpentanoyl}-Arginyl-OH] | 7 µM |
| CC(C)C[C@H](NC(=O)[C@H](C)NC(=O)[C@H](CC1CCCCC1)NC(=O)CNC(=O)CCCCCN)C(=O)NC(CCCc1ccccc1)C(=O)N[C@@H](CCCNC(=N)N)C(=O)O (single isomer, unassigned) [Example 32] | 10 µM |
| CC(C)C[C@H](NC(=O)[C@H](C)NC(=O)[C@H](CC1CCCCC1)NC(=O)CNC(=O)CCCCCN)C(=O)NC(CCCc1ccccc1)C(=O)N[C@@H](CCCNC(=N)N)C(=O)O (single isomer, unassigned) [Example 33] | 0.68 µM |
| CC(C)C[C@H](NC(=O)CNC(=O)[C@@H](CC1CCCCC1)NC(=O)CCCCCN)C(=O)NC(CCCc1ccccc1)C(=O)N[C@@H](CCCNC(=N)N)C(=O)O (single isomer, unassigned) [Example 34] | 21.6 µM |
| CC(C)C[C@H](NC(=O)CNC(=O)[C@@H](CC1CCCCC1)NC(=O)CCCCCN)C(=O)NC(CCCc1ccccc1)C(=O)N[C@@H](CCCNC(=N)N)C(=O)O (single isomer, unassigned) [Example 35] | 1.27 µM |
| CC(C)C[C@H](NC(=O)CNC(=O)[C@H](CC1CCCCC1)N(C)C(=O)CCCCN)C(=O)NC(CCCc1ccccc1)C(=O)N[C@@H](CCCNC(=N)N)C(=O)O (single isomer, unassigned) [Example 36] | 9.7 µM |
| CC(C)C[C@H](NC(=O)CNC(=O)[C@H](CC1CCCCC1)N(C)C(=O)CCCCN)C(=O)NC(CCCc1ccccc1)C(=O)N[C@@H](CCCNC(=N)N)C(=O)O (single isomer, unassigned) [Example 37] | 3.2 µM |
| CSCC[C@H](NC(=O)[C@H](CC(=O)O)NC(=O)[C@@H](N)CCCCN)C(=O)N[C@@H](CCC(N)=O)C(=O)N[C@@H](CC(C)C)C(=O)NC(CCCc1ccccc1)C(=O)N[C@@H](CCCNC(=N)N)C(=O)O (single isomer, unassigned) [Example 39, H-Lysyl-Aspartyl-Methionyl-Glutaminyl-Leucyl-{(R/S)-2-Amino-5-phenylpentanoyl}-Arginyl-OH] | 71 µM |
| CSCC[C@H](NC(=O)[C@H](CC(=O)O)NC(=O)[C@@H](N)CCCCN)C(=O)N[C@@H](CCC(N)=O)C(=O)N[C@@H](CC(C)C)C(=O)NC(CCCc1ccccc1)C(=O)N[C@@H](CCCNC(=N)N)C(=O)O (single isomer, unassigned) [Example 40, H-Lysyl-Aspartyl-Methionyl-Glutaminyl-Leucyl-{(R/S)-2-Amino-5-phenylpentanoyl}-Arginyl-OH] | 1.1 µM |
| CC(C)C[C@H](NC(=O)CNC(=O)[C@H](CC1CCCCC1)NC(=O)[C@@H](N)CCCCN)C(=O)NC(CCCc1ccccc1)C(=O)N[C@@H](CCCNC(=N)N)C(=O)O (single isomer, unassigned) [Example 41, H-Lysyl-{(2S)-2-Amino-3-cyclohexylpropanoyl}-Glycyl-Leucyl-{(R/S)-2-Amino-5-phenylpentanoyl}-Arginyl-OH] | 25.4 µM |
| CC(C)C[C@H](NC(=O)CNC(=O)[C@H](CC1CCCCC1)NC(=O)[C@@H](N)CCCCN)C(=O)NC(CCCc1ccccc1)C(=O)N[C@@H](CCCNC(=N)N)C(=O)O (single isomer, unassigned) [Example 42, H-Lysyl-{(2S)-2-Amino-3-cyclohexylpropanoyl}-Glycyl-Leucyl-{(R/S)-2-Amino-5-phenylpentanoyl}-Arginyl-OH] | 0.45 µM |
| CC(=O)N[C@@H](CC1CCCCC1)C(=O)NCC(=O)N[C@@H](CC(C)C)C(=O)NC(CCCc1ccccc1)C(=O)N[C@@H](CCCNC(=N)N)C(=O)O (single isomer, unassigned) [Example 45] | 7.58 µM |
| CC(=O)N[C@@H](CC1CCCCC1)C(=O)NCC(=O)N[C@@H](CC(C)C)C(=O)NC(CCCc1ccccc1)C(=O)N[C@@H](CCCNC(=N)N)C(=O)O (single isomer, unassigned) [Example 46, N-Acetyl-{(2S)-2-Amino-3-cyclohexylpropanoyl}-Glycyl-Leucyl-{(R/S)-2-Amino-5-phenylpentanoyl}-Arginyl-OH] | 22 µM |
| CC(C)C[C@H](NC(=O)[C@H](C)NC(=O)[C@H](CC1CCCCC1)NC(=O)[C@@H]1CCCN1C(=O)[C@H](CCCCN)NC(=O)CN)C(=O)NC(CCCc1ccccc1)C(=O)N[C@@H](CCCNC(=N)N)C(=O)O (single isomer, unassigned) [Example 52] | 10.3 µM |
| CC(C)C[C@H](NC(=O)[C@H](C)NC(=O)[C@H](CC1CCCCC1)NC(=O)[C@@H]1CCCN1C(=O)[C@H](CCCCN)NC(=O)CN)C(=O)NC(CCCc1ccccc1)C(=O)N[C@@H](CCCNC(=N)N)C(=O)O (single isomer, unassigned) [Example 53, H-Glycyl-Lysyl-Prolyl-{(2S)-2-Amino-3-cyclohexylpropanoyl}-Alanyl-Leucyl-{(R/S)-2-Amino-5-phenylpentanoyl}-Arginyl-OH] | 0.1 µM |
| CC(C)C[C@H](NC(=O)CNC(=O)[C@H](CC1CCCCC1)NC(=O)[C@H](N)CCCCN)C(=O)NC(CCCc1ccccc1)C(=O)N[C@@H](CCCNC(=N)N)C(=O)O (single isomer, unassigned) [Example 56] | 26.8 µM |
| CC(C)C[C@H](NC(=O)CNC(=O)[C@H](CC1CCCCC1)NC(=O)[C@H](N)CCCCN)C(=O)NC(CCCc1ccccc1)C(=O)N[C@@H](CCCNC(=N)N)C(=O)O (single isomer, unassigned) [Example 57] | 1.93 µM |
| CC(C)C[C@H](NC(=O)CN(C)C(=O)[C@H](CC1CCCCC1)NC(=O)CCCCCCN)C(=O)NC(CCCc1ccccc1)C(=O)N[C@@H](CCCNC(=N)N)C(=O)O (single isomer, unassigned) [Example 60] | 19 µM |
| CC(C)C[C@H](NC(=O)CN(C)C(=O)[C@H](CC1CCCCC1)NC(=O)CCCCCCN)C(=O)NC(CCCc1ccccc1)C(=O)N[C@@H](CCCNC(=N)N)C(=O)O (single isomer, unassigned) [Example 61] | 3.2 µM |
